Data published in patent US11260083B2, “Compositions and methods for treating and preventing graft versus host disease” (The Regents of the University of Michigan, priority 2016, dated 2022).

Test system: allogeneic (C57BL/6J→BALB/c) BMT recipients
Test: MHC-mismatched allo-BMT GVHD model with intragastric butyrate
Type: in vivo, mouse
Experimental: BMTs were performed as previously described (Reddy, P. et al. A crucial role for antigen-presenting cells and alloantigen expression in graft-versus-leukemia responses. Nat. Med. 11, 1244-1249 (2005); 15). Briefly, syngeneic (BALB/c→BALC/c or C57BL/6J→C57BL/6J) and allogeneic (C57BL/6J→BALB/c or C3H.sw→C57BL/6J) recipients received lethal irradiation. On day −1, BALB/c recipients received a total of 800 cGy of irradiation (split dose separated by 3 hours) and B6 animals received a single dose of 1000 cGy. Donor splenic CD90.2+ T cells were magnetically separated using an autoMACs (Miltenyi Biotec; Bergisch Gladbach, Germany) and 0.5×10^6 to 2.5×10^6 T cells were transferred to BALB/c and C57BL/6J recipients. 5×10^6 donor whole or TCD bone marrow was transferred to all recipients. Survival was monitored daily and the recipient body weight and GVHD clinical scores were determined weekly, as described previously42. Histopathologic analysis of the gastrointestinal (GI) tract was performed as described (Reddy, P. et al. A crucial role for antigen-presenting cells and alloantigen expression in graft-versus-leukemia responses. Nat. Med. 11, 1244-1249 (2005)). Animals received vehicle (sterile PBS, 0.0004 g Na+ per dose) or sodium butyrate (10 mg/kg, 0.00004 g Na+ per dose) by flexible 20G-1.5″ intragastric gavage needle daily for 1 week, then every other day thereafter.
Systemic administration of HDACi decreases acute GVHD (Reddy, P. et al. Histone deacetylase inhibitor suberoylanilide hydroxamic acid reduces acute graft-versus-host disease and preserves graft-versus-leukemia effect. Proc Natl Acad Sci USA 101, 3921-3926 (2004); Reddy, P. et al. Histone deacetylase inhibition modulates indoleamine 2,3-dioxygenasedependent DC functions and regulates experimental graft-versus-host disease in mice. J. Clin. Invest. 118, 2562-2573 (2008); Sun, Y. et al. Cutting edge: Negative regulation of dendritic cells through acetylation of the nonhistone protein STAT-3. J Immunol 182, 5899-5903 (2009)). It was therefore determined if increasing local levels of endogenous HDACi, butyrate, would impact GVHD severity. Again using the C57BL/6J into Balb/c model, vehicle control or butyrate was administered via daily intragastric gavage for one week, followed by administration every other day for the remainder of the experiment. […] Next, to further evaluate the magnitude of the butyrate-induced protective effect, GVHD mortality was determined utilizing the MHC disparate B6 into BALB/c model.

[1] = intragastric butyrate daily 1 week then every other day, vs vehicle

With `CCCC(=O)[O-].[Na+]` [butyrate, sodium butyrate] the “histological scores in the intestines” value (21 days following BMT, major MHC mismatch model) was “decreased histological scores”, the “GVHD mortality / survival” value (B6 into BALB/c, higher doses of T cells) was “significant GVHD survival benefit” and the GVHD clinical scores [1] was “decreased”. The survival [1] was “increased survival” and the weight loss [1] was “decreased weight loss”.
